Data published in patent publication US20180087079A1, “METHODS OF USING CELL-CYCLE INHIBITORS TO MODULATE ONE OR MORE PROPERTIES OF A CELL CULTURE” (AMGEN INC., priority 2013, published 2018).

What was measured:
[1] = system: CHO cells; experiment: Cell cycle analysis: propidium iodide staining and FACS; assay type: cell-based, Chinese hamster; details: 5 microM
Method: In one set of experiments, a cell cycle analysis was performed for various cell cycle inhibitory compounds. Briefly, CHO cells are grown in 24 deep well plate (for example, Corning Axygen deep well plates; Corning, Amsterdam, The Netherlands), using standard cell-culture medium, under conditions promoting growth of the cells (for example 36 degreesC, 5% CO2) in the presence of various cell cycle inhibitors. Samples are collected at various time points, and cell cycle profiles are obtained by propidium iodide (PI) staining followed by fluorescence-activated cell sorting (FACS) analysis. Results for compounds 6-acetyl-8-cyclopentyl-5-methyl-2-((5-(1-piperazinyl)-2-pyridinyl)amino)pyrido[2,3-d][…] (Compound A) and N-(6-(4-(dimethylamino)-1-piperidinyl)-3-pyridazinyl)-9-(trans-4-methylcyclohexyl)-9H-pyrido[4′,3′,:4,5]pyrrolo[2,3-d]pyrimidin-2-amine (Compound B) are shown in Table 1 below.

[2] = system: transfected CHO cells expressing recombinant human monoclonal antibody (cell line 1); experiment: 24-deep well culture, cell line 1: VCD, viability, titer, qP; assay type: cell-based, Chinese hamster; details: for Titer / VCD / Viability / qP: Cell Line 1, 5 microM
Method in brief: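 Antibody-expressing CHO lines were grown in 24-deep-well plates with or without compound. Cultures were sampled at set time points for VCD (10^6 cells/mL), viability, titer (g/L, by Protein A HPLC) and specific productivity qP (pg/cell/day). High-molecular-weight species and Mannose 5 share were also measured.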

[3] = system: transfected CHO cells expressing recombinant human monoclonal antibody (cell line 2); experiment: 24-deep well culture, cell line 2: VCD, viability, titer, qP; assay type: cell-based, Chinese hamster; details: 5 microM
Method: Transfected CHO cells expressing a recombinant human monoclonal antibody (mAb) are cultured in 24-deep well plates with seeding density at 1×10^7/mL for five days. At certain time periods, samples of the cultures are taken and evaluated for viable cell density (VCD; expressed in 10^6 cells/mL); percent viability (as determined by trypan blue exclusion); titer of recombinant protein (expressed in grams of protein per liter of culture, or g/L, as determined by Protein A affinity HPLC); qP, or specific productivity (expressed in picograms of recombinant protein per cell per day, or pg/c/d), the presence or absence of high molecular weight substances (usually an indicator of protein aggregation; expressed as % of the total protein); and the relative percentage of Mannose 5, a major intermediate glyco-form that attaches to N297 of the mAb. N-linked glycosylation has an impact on the tertiary structure of the antibody and may affect Fc mediated antibody effector functions. The majority of the human Fc glycans are complex biantennary structures with galactose as the prevalent terminal sugar. Immature glyco-forms, such as high-mannose glycol-forms (Man5-9), are of concern due to potential higher plasma clearance rate (as compared to the clearance rate of complex glycan linked mAbs).
Compounds are further evaluated essentially as described in Example 2 herein. Briefly, transfected CHO cells expressing recombinant human monoclonal antibody (mAb; two different cell lines expressing two different mAb, referred to as cell line 1 and cell line 2) are cultured in 24-deep well plates in the presence or absence of the compounds. At specified time points, samples of the cultures are taken and evaluated for viable cell density (VCD; expressed in 10^6 cells/mL); percent viability (as determined by any method known in the art); titer of recombinant protein (expressed in grams of protein per liter of culture, or g/L, as determined by Protein A affinity HPLC); qP, or specific productivity (expressed in picograms of recombinant protein per cell per day, or pg/c/d). Additional parameters measure include the presence or absence of high molecular weight substances (usually an indicator of protein aggregation; expressed as % of the total protein); and the relative percentage of Mannose 5. For comparison purposes, Compounds A and B, which had been previously tested, were tested again.

[4] = molecular target: T1, CDK4/Cyclin D1 (Homo sapiens, UniProt P11802); experiment: CDK4 filtration kinase assay; assay type: biochemical; details: CDK4/Cyclin D1, Rb fragment substrate, [33P]-ATP
T1 construct: purchased Cell Signaling Technology
Method: The CDK4 inhibitory activity of the cell cycle inhibitors was determined with a filtration kinase assay. The compounds, kinase and substrate diluted in the kinase buffer (20 mM Tris, pH7.4, 50 mM NaCl, 1 mM DTT, 0.1% BSA) were sequentially added to a 96-well Multiscreen HTS filtration plate (Millipore). The final 100 μL reaction mixture in each well contained 0.3 μg of CDK4/Cyclin D1 (Cell Signaling Technology), 1 μg of Rb fragment (aa773-928, Millipore) for the CDK4 assay and 1 μCi of [^33P]-ATP. The mixture was incubated at room temperature for 1 hour. The proteins in the reaction were then precipitated and washed with cold TCA solution using an aspiration/filtration vacuum system. The plates were dried at room temperature, and the retained radioactivity was measured by scintillation counting. IC50 values of the compounds in the above assays were determined by non-linear regression analysis using Prism (GraphPad Software).

[5] = system: Colo205; experiment: [14C]-thymidine incorporation cell proliferation inhibition assay; assay type: cell-based; details: Homo sapiens, COLO 205, 72 hour incubation
Method: The cell proliferation inhibition potency of the cell cycle inhibitors was determined by using a [^14C]-thymidine incorporation assay. Exponentially growing cells (Colo205) were seeded in a 96-well Cytostar T plate (GE Healthcare Biosciences) at a density of 5×10^3 cells/well and incubated overnight. Serially diluted compounds and 0.1 μCi of [^14C]-thymidine (GE Healthcare Biosciences) were added to each well on the following day. After 72 hour incubation, isotope incorporation was determined with a β plate counter (Wallac). IC50 values of the compounds in the above assays were determined by non-linear regression analysis using Prism (GraphPad Software).

T1 sequence (P11802 whole entry, species assumed, the tested form may be a part): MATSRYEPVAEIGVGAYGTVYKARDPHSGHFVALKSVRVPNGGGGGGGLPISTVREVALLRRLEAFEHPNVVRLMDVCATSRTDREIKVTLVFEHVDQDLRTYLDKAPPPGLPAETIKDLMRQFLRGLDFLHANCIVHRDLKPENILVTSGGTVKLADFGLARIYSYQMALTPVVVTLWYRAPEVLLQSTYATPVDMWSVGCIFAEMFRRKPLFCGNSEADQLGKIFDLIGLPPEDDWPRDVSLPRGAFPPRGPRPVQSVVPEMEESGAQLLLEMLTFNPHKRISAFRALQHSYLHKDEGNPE
T1 sequence (P24385 whole entry partner, species assumed, the tested form may be a part): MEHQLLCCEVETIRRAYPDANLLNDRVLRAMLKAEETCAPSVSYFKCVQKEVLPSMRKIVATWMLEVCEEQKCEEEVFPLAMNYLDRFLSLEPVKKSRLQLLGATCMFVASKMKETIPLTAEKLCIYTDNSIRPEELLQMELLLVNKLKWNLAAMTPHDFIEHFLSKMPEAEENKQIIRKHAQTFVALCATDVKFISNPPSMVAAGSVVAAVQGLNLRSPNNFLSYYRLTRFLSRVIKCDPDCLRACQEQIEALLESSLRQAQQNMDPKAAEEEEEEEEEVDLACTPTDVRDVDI

CN(C)C1CCN(c2ccc(Nc3ncc4c5ccncc5n([C@H]5CC[C@H](C)CC5)c4n3)nn2)CC1 [Compound B, N-(6-(4-(dimethylamino)-1-piperidinyl)-3-pyridazinyl)-9-(trans-4-methylcyclohexyl)-9H-pyrido[4′,3′,:4,5]pyrrolo[2,3-d]pyrimidin-2-amine]
Cell Cycle Distribution (%) G1 ([1]; Day 1): 91.22%
Cell Cycle Distribution (%) G2/M ([1]; Day 1): 2.74%
Cell Cycle Distribution (%) S ([1]; Day 1): 6.04%
Cell Cycle Distribution (%) G1 ([1]; Day 2): 74.82%
Cell Cycle Distribution (%) G2/M ([1]; Day 2): 5.75%
Cell Cycle Distribution (%) S ([1]; Day 2): 19.43%
Cell Cycle Distribution (%) G1 ([1]; Day 3): 79.21%
Cell Cycle Distribution (%) G2/M ([1]; Day 3): 3.49%
Cell Cycle Distribution (%) S ([1]; Day 3): 17.3%
Cell Cycle Distribution (%) G1 ([1]; Day 4): 78.68%
Cell Cycle Distribution (%) G2/M ([1]; Day 4): 6.13%
Cell Cycle Distribution (%) S ([1]; Day 4): 15.19%
Titer ([2]; D 1): 0.47 g/L
VCD ([2]; D 1): 10.95 e6/mL
Viability ([2]; D 1): 94.83%
qP ([2]; D 1): 42.90 pg/c/d
Titer ([2]; D 2): 0.70 g/L
VCD ([2]; D 2): 9.61 e6/mL
Viability ([2]; D 2): 85.63%
qP ([2]; D 2): 72.84 pg/c/d
Titer ([2]; D 3): 0.96 g/L
VCD ([2]; D 3): 10.14 e6/mL
Viability ([2]; D 3): 82.33%
qP ([2]; D 3): 94.99 pg/c/d
Titer ([2]; D 4): 1.19 g/L
VCD ([2]; D 4): 12.66 e6/mL
Viability ([2]; D 4): 78.87%
qP ([2]; D 4): 94.23 pg/c/d
effect on viability ([2]; summary of Table 2): greater (but still modest) decreases in viability
growth arrest ([2]; summary of Table 2): more sustained growth arrest
Titer ([3]; D 1): 0.29 g/L
VCD ([3]; D 1): 10.88 e6/mL
Viability ([3]; D 1): 95.11%
qP ([3]; D 1): 26.34 pg/c/d
Titer ([3]; D 2): 0.49 g/L
VCD ([3]; D 2): 11.15 e6/mL
Viability ([3]; D 2): 89.60%
qP ([3]; D 2): 43.95 pg/c/d
Titer ([3]; D 3): 0.62 g/L
VCD ([3]; D 3): 13.45 e6/mL
Viability ([3]; D 3): 87.50%
qP ([3]; D 3): 46.35 pg/c/d
Titer ([3]; D 4): 0.89 g/L
VCD ([3]; D 4): 20.16 e6/mL
Viability ([3]; D 4): 87.46%
qP ([3]; D 4): 43.97 pg/c/d
IC50 [4]: 2.75 nM
IC50 [5]: 14.8 nM
